# Experimental data published in patent US20120207821A1, “Liposomal formulation and use thereof” (priority 2005, published 2012).
# Assays:
# [1] = test system: Leishmania donovani, AG83; assay: In vivo activity screening in established infection model with graded doses to calculate 50% effective dose; settings: for % Inhibition of liver parasite level / % Inhibition of spleen parasite level: BALB/c mice, i.v., 30 days post treatment
# Text: Inbred mice of 4-6 weeks old, weigh 20 g and of any sex, strain BALB/c were infected with Leishmania donovani, AG83, by intravenous inoculation with 2.5×10^7 amastigotes from the spleen of an infected hamster. Eight weeks after inoculation, the mice were divided into groups of 4-5 animals and dosed intravenously into the tail vein with graded dose of free SAG, empty PC-SA liposome, or SAG entrapped PC-SA liposome. Mice were sacrificed on 30 days post treatment. The livers and spleens were excised and weighed. Impressions smears were prepared from the cut surface of the liver and spleen. The impression smears were stained with Giemsa, and number of amastigotes counted microscopically per 500 cell nuclei. The results of 30 days post treatment are expressed as percentage suppression in parasite burden in compared to infected but untreated mice. Thereby, the dosage necessary to reduce the parasite count to 50% of the untreated group could be calculated.
# [2] = test system: Leishmania donovani, AG83; assay: In vivo activity screening in chronic infection model (12 weeks post infection); settings: BALB/c mice, single i.v. dose 12 weeks post infection, 30 days post treatment; SAG 0.015-0.02 g/kg body wt.
# Text: Inbred mice of 4-6 weeks old, weigh 20 g and of any sex, strain BALB/c were infected with Leishmania donovani, AG83, by intravenous inoculation with 2.5×10^7 amastigotes from the spleen of an infected hamster. Twelve weeks after inoculation, the mice were divided into groups of 4-5 animals and dosed intravenously into the tail vein with empty PC-SA liposome (1-1.1 g/kg body wt.), free SAG (0.015-0.020 g/kg body wt.) or equivalent amount of SAG entrapped in PC-SA liposome (0.015 g/kg of SAG in 1-1.1 g/kg body wt of liposome). Mice were sacrificed on 30 days post treatment. Livers and spleens were excised and weighed. Impressions smears were prepared from the cut surface of the liver and spleen. The impression smears were stained with Giemsa, and number of amastigotes counted microscopically per 500 cell nuclei. The results of 30 days post treatment are shown below and expressed percentage suppression in parasitemia with respect to untreated infected control calculated.
# [3] = test system: Leishmania donovani GE1F8R strain; assay: In vivo efficacy assay against SAG-resistant strain; settings: BALB/c mice, i.v. 8 weeks after inoculation, 30 days post treatment
# Description: Inbred mice of 4-6 weeks old, weigh […] and of any sex, strain BALB/c were infected with Leishmania donovani GE1F8R strain by intravenous inoculation with 2.5×10^7 amastigotes from the spleen of an infected hamster. Eight weeks after inoculation, the mice were divided into groups of 4-5 animals and dosed intravenously into the tail vein with optimal dose of free SAG, equivalent amount of free SAG, empty PC-SA liposome or SAG entrapped PC-SA liposome ([…]). Mice were sacrificed on 30 days post treatment. Livers and spleens were excised and weighed. Bone marrow was also isolated and smeared on glass slides. Impressions smears were prepared from the cut surface of the liver and spleen. The impression smears were stained with Giemsa, and number of amastigotes counted microscopically per 500 cell nuclei. The results of 30 days post treatment are expressed as Leishman Donovan units and percentage suppression in parasitemia with respect untreated infected control were calculated.
# [4] = test system: Leishmania donovani, AG83; assay: In vivo efficacy in established infection model (8 weeks post infection); settings: BALB/c mice, single i.v. dose 8 weeks post infection, 30 days post treatment, SAG 0.3-0.4 g/kg body wt.
# Text: Inbred mice of 4-6 weeks old, weigh 20 g and of any sex, strain BALB/c were infected with Leishmania donovani, AG83, by intravenous inoculation with 2.5×10^7 amastigotes from the spleen of an infected hamster. Eight weeks after inoculation, the mice were divided into groups of 4-5 animals and administered at a single dose intravenously into the tail vein with optimal dose of free SAG (0.3 g/kg wt.) or empty PC-SA liposome (1.1 g/kg wt.) or SAG entrapped PC-SA liposome (0.015 g/kg of SAG into 1.1 g/kg body wt.) or SAG entrapped in PC-Chol liposome (0.015 g/kg of SAG into 1.25 g/kg wt. of lipid). Mice were sacrificed on 30 days post treatment. Livers and spleens were excised and weighed. Bone marrow was also isolated from femur bone and smeared on glass slides. Impressions smears were prepared from the cut surface of the liver and spleen. The impression smears were stained with Giemsa, and number of amastigotes counted microscopically per 500 cell nuclei. The results of 30 days post treatment are shown below and expressed as percentage suppression in parasitemia with respect to untreated infected.
# [5] = liver parasite level, dose expressed as SAG
# [6] = spleen parasite level, dose expressed as SAG
compound,measurement,setting,value
sodium antimony gluconate [SAG],% Inhibition of liver parasite level,[1]; SAG 0.005 g/kg body wt.,56.55%
same,% Inhibition of spleen parasite level,[1]; SAG 0.005 g/kg body wt.,41.27%
same,% Inhibition of liver parasite level,[1]; SAG 0.010 g/kg body wt.,56.7%
same,% Inhibition of spleen parasite level,[1]; SAG 0.010 g/kg body wt.,50.95%
same,% Inhibition of liver parasite level,[1]; SAG 0.050 g/kg body wt.,61.29%
same,% Inhibition of spleen parasite level,[1]; SAG 0.050 g/kg body wt.,55.67%
same,% Inhibition of liver parasite level,[1]; SAG 0.10 g/kg body wt.,88.03%
same,% Inhibition of spleen parasite level,[1]; SAG 0.10 g/kg body wt.,65.79%
same,% Inhibition of liver parasite level,[1]; SAG 0.30 g/kg body wt.,92.73%
same,% Inhibition of spleen parasite level,[1]; SAG 0.30 g/kg body wt.,70.49%
same,% Inhibition of liver parasite level,[1]; SAG 0.50 g/kg body wt.,96.6%
same,% Inhibition of spleen parasite level,[1]; SAG 0.50 g/kg body wt.,80.33%
same,"ED50 (+S.E) Liver, SAG",[1]; [5],0.012 + 0.004 g/kg body wt.
same,"ED90 (+S.E) Liver, SAG",[1]; [5],0.347 + 0.005 g/kg body wt.
same,"ED50 (+S.E) Spleen, SAG",[1]; [6],0.145 + 0.020 g/kg body wt.
same,"ED90 (+S.E) Spleen, SAG",[1]; [6],0.493 + 0.028 g/kg body wt.
same,% Inhibition of liver parasite level,[2],50.88%
same,% Inhibition of spleen parasite level,[2],26.69%
same,% Inhibition of parasite level,"[3]; bone marrow, SAG 0.015-0.02 g/kg body wt.",0%
same,% Inhibition of parasite level,"[3]; bone marrow, SAG 0.3 g/kg body wt.",16.836%
same,% Inhibition of parasite level,"[3]; liver, SAG 0.015-0.02 g/kg body wt.",0%
same,% Inhibition of parasite level,"[3]; liver, SAG 0.3 g/kg body wt.",5.309%
same,% Inhibition of parasite level,"[3]; spleen, SAG 0.015-0.02 g/kg body wt.",0%
same,% Inhibition of parasite level,"[3]; spleen, SAG 0.3 g/kg body wt.",16.836%
same,% Inhibition of liver parasite level,[4],82.322%
same,% Inhibition of spleen parasite level,[4],70%
same,% Inhibition of parasite level,[4]; bone marrow,44.029%
C[C@@H]1[C@H](O)[C@@H](C)/C=C/C=C/C=C/C=C/C=C/C=C/C=C/[C@H](O[C@@H]2O[C@H](C)[C@@H](O)[C@H](N)[C@@H]2O)C[C@@H]2O[C@](O)(C[C@@H](O)C[C@@H](O)[C@H](O)CC[C@@H](O)C[C@@H](O)CC(=O)O[C@H]1C)C[C@H](O)[C@H]2C(=O)O [Amphotericin B],% Inhibition of parasite level,"[3]; bone marrow, Amphotericin B 0.002-0.0025 g/kg body wt.",85.091%
same,% Inhibition of parasite level,"[3]; liver, Amphotericin B 0.002-0.0025 g/kg body wt.",87.778%
same,% Inhibition of parasite level,"[3]; spleen, Amphotericin B 0.002-0.0025 g/kg body wt.",85.091%
